Residue numbers refer to the chain shown, from its start.
Key:
Assay in all cases: KINOMEscan kinase binding assay (Eurofins/DiscoveRx), % Ctrl
[1] = target: T1, kinases (Homo sapiens, UniProt P10721, L576P)
T1 construct: purchased Eurofins/DiscoveRx; host or cells: E. coli BL21-derived host (T7 phage display) for most kinases; HEK-293 for the rest
Method in brief: (§1)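 Competition binding, 1 h RT: phage-tagged or HEK-293-expressed DNA-tagged kinase + immobilized ligand + compound. Eluate kinase by qPCR. % Ctrl = (test − positive ctrl)/(negative ctrl − positive ctrl) × 100; lower means stronger binding.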

[2] = target: T2, kinases (Homo sapiens, UniProt P36888, K663Q)
T2 construct: purchased Eurofins/DiscoveRx; host or cells: E. coli BL21-derived host (T7 phage display) for most kinases; HEK-293 for the rest
T2 sequence (P36888 27-993 K663Q): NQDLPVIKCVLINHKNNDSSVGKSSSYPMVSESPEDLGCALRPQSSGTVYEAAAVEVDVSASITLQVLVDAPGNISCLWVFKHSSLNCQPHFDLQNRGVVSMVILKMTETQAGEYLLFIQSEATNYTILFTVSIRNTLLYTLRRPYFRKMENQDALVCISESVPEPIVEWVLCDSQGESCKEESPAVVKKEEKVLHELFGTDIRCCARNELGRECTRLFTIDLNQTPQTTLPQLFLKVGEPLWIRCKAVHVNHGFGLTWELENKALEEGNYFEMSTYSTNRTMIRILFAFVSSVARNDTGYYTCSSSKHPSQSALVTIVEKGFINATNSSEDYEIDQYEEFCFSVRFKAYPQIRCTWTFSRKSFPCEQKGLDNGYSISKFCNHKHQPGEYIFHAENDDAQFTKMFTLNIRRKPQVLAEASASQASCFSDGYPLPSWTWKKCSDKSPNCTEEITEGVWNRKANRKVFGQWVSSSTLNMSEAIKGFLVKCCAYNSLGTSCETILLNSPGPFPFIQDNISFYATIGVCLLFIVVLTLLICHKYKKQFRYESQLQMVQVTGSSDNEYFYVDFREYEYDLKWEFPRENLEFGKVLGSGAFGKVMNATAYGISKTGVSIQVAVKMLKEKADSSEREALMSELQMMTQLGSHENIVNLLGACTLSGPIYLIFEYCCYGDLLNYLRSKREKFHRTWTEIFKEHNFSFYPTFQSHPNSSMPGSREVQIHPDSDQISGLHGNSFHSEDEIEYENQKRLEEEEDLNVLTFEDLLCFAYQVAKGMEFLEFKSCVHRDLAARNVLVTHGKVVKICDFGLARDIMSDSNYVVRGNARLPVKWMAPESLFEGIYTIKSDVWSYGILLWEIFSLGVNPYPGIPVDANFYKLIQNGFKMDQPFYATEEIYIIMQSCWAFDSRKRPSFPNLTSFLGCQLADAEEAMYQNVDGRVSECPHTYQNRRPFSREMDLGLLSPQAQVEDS
Method in brief: as §1

[3] = target: T3, kinases (Homo sapiens, UniProt P10721, T670I/V559D)
T3 construct: purchased Eurofins/DiscoveRx; host or cells: E. coli BL21-derived host (T7 phage display) for most kinases; HEK-293 for the rest
T3 sequence (P10721 26-976 V559D/T670I): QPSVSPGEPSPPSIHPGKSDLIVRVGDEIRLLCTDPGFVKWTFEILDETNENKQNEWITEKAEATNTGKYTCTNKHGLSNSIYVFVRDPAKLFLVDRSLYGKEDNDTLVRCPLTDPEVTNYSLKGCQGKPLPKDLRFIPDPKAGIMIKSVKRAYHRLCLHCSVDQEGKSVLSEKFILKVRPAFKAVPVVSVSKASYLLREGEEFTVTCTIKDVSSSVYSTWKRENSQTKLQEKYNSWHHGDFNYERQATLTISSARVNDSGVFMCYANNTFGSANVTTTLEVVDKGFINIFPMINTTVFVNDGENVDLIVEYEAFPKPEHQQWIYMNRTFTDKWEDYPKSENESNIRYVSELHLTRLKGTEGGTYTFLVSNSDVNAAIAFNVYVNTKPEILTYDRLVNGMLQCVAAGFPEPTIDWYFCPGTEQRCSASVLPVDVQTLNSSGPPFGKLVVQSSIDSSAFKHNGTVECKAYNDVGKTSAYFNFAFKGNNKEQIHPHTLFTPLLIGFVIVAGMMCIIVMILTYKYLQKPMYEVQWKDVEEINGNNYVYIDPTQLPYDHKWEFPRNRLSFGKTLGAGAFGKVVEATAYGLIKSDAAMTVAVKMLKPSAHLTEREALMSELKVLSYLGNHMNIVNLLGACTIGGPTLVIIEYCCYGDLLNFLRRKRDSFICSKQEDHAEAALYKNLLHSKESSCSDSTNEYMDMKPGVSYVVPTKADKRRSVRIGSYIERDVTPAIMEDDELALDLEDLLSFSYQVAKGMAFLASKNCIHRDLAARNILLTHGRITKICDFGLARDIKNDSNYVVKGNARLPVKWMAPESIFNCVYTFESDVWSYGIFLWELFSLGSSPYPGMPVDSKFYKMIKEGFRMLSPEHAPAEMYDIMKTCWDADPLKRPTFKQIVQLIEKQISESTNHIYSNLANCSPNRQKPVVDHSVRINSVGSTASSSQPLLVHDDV
Method in brief: as §1

[4] = target: T4, kinases (Homo sapiens, UniProt P36888, R834Q)
T4 construct: purchased Eurofins/DiscoveRx; host or cells: E. coli BL21-derived host (T7 phage display) for most kinases; HEK-293 for the rest
T4 sequence (P36888 27-993 R834Q): T2 sequence (P36888 27-993 K663Q) with Q637K, R808Q
Method in brief: as §1

[5] = target: T5, kinases (Homo sapiens, UniProt P00519, F317L)
T5 construct: purchased Eurofins/DiscoveRx; host or cells: E. coli BL21-derived host (T7 phage display) for most kinases; HEK-293 for the rest
T5 sequence (P00519 whole entry F317L): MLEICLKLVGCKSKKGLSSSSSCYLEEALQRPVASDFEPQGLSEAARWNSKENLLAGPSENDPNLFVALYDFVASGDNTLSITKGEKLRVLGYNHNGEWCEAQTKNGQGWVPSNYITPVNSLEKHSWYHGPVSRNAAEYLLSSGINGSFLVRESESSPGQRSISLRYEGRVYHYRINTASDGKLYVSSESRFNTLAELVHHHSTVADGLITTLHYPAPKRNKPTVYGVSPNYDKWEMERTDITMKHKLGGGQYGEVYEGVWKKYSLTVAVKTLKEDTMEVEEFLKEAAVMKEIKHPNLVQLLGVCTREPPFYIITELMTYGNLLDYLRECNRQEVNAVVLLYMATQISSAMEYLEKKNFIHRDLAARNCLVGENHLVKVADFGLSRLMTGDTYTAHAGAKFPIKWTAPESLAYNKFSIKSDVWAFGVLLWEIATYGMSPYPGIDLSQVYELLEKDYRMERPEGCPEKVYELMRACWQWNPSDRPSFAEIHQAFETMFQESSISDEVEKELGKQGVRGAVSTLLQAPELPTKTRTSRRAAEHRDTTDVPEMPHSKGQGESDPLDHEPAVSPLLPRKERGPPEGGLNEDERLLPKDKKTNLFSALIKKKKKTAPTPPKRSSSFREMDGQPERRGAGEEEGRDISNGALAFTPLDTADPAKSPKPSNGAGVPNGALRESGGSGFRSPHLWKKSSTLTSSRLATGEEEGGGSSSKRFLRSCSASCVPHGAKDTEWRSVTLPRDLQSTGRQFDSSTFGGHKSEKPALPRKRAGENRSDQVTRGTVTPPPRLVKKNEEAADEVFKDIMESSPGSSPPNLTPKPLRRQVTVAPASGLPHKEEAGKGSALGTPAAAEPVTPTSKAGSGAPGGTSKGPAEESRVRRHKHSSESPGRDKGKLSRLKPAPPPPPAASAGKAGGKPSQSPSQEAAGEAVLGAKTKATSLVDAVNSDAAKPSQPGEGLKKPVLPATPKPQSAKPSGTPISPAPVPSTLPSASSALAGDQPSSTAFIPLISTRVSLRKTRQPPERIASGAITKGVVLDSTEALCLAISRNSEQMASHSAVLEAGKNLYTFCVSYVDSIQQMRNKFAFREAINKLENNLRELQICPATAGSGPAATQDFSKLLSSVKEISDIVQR
Method in brief: as §1

[6] = 1 μM; ABL1(F317L)-nonphosphorylated
[7] = 1 μM; ABL1(F317L)-phosphorylated
[8] = target ABL1(F317L)-nonphosphorylated; 1 μM
[9] = target ABL1(F317L)-phosphorylated; 1 μM

T1 sequence (P10721 26-976 L576P): as the sequence (P10721 26-976 V559D/T670I) above, with D534V, L551P, I645T counted along it

| % Ctrl, KIT(L576P) ([1]; 1 μM; KIT(L576P)) [% Ctrl] | % Ctrl, FLT3(K663Q) ([2]; 1 μM; FLT3(K663Q)) [% Ctrl] | % Ctrl, KIT(V559D, T670I) ([3]; 1 μM; KIT(V559D, T670I)) [% Ctrl] | % Ctrl, FLT3(R834Q) ([4]; 1 μM; FLT3(R834Q)) [% Ctrl] | % Ctrl, ABL1(F317L)-nonphosphorylated [5, 6] [% Ctrl] | % Ctrl, ABL1(F317L)-phosphorylated [5, 7] [% Ctrl] | SMILES | other results |
| --- | --- | --- | --- | --- | --- | --- | --- |
| 97 | 77 | 97 | 100 | 100 | 100 | Cc1cc2c([nH]1)/C=C1\C(=O)Nc3cnc(cc31)-c1cnn(C)c1COCCNC2=O [Ex.123, [3a(4)Z]-6,14-dimethyl-10,11,13,14-tetrahydro-2H-17,1-(azenometheno)pyrazolo[4,3-m]dipyrrolo[3,2-f:3′,4′-i][1,4]oxazacyclopentadecine-3,8(5H,9H)-dione] |  |
| 40 | 17 | 30 | 15 | 26 | 53 | Cc1cc2c([nH]1)/C=C1\C(=O)Nc3ccc(cc31)-c1ccnn1CCOCCN(C)C2=O [Ex. 41, [19a(20)Z]-2,5-dimethyl-6,7,9,10-tetrahydro-1H-15,17-(ethanediylidene)pyrazolo[1,5-d]dipyrrolo[3,4-h:2′,3′-k][1,4,14]oxadiazacyclohexadecine-4,19(5H,18H)-dione] |  |
|  |  |  |  |  |  | CN1CCOCCOc2cc3c(cc2Cl)NC(=O)/C3=C\c2[nH]ccc2C1=O [Ex. 143, [16a(17)Z]-19-chloro-2,5-dimethyl-6,7,9,10-tetrahydro-1H-12,14-(ethanediylidene)dipyrrolo[3,2-i:3′,4′-l][1,4,7]oxathiazacyclopentadecine-4,16(5H,15H)-dione] | % Ctrl, KIT(L576P) ([1]; target KIT(L576P); 1 μM): 0 % Ctrl; % Ctrl, FLT3(K663Q) ([2]; target FLT3(K663Q); 1 μM): 11 % Ctrl; % Ctrl, KIT(V559D, T670I) ([3]; target KIT(V559D, T670I); 1 μM): 1.6 % Ctrl; % Ctrl, FLT3(R834Q) ([4]; target FLT3(R834Q); 1 μM): 33 % Ctrl; % Ctrl, ABL1(F317L)-nonphosphorylated [5, 8]: 17 % Ctrl; % Ctrl, ABL1(F317L)-phosphorylated [5, 9]: 17 % Ctrl |
| 87 | 57 | 91 | 75 | 6.5 | 76 | Cc1cc2c([nH]1)/C=C1\C(=O)Nc3ccc(cc31)O[C@@H](C)COCCN(C)C2=O [Ex. 92, [10S,16a(17)Z]-2,5,10-trimethyl-6,7,9,10-tetrahydro-1H-12,14-(ethanediylidene)dipyrrolo[3,2-i:3′,4′-l][1,4,7]dioxazacyclopentadecine-4,16(5H,15H)-dione] |  |
| 8.7 | 77 | 7.4 | 49 | 77 | 88 | Cc1cc2c([nH]1)/C=C1\C(=O)Nc3cc(Cl)c(cc31)OCCO[C@@H](C(=O)NC1CNC1)CN(C)C2=O [Ex. 133, [7R,16a(17)Z]-N-(azetidin-3-yl)-19-chloro-2,5-dimethyl-4,16-dioxo-4,5,6,7,9,10,15,16-octahydro-1H-12,14-(ethanediylidene)dipyrrolo[3,2-i:3′,4′-l][1,4,7]dioxazacyclopentadecine-7-carboxamide] |  |
| 73 | 5.3 | 62 | 13 | 4.1 | 0.8 | Cc1cc2c([nH]1)/C=C1\C(=O)Nc3ccc(cc31)-c1c(C)n[nH]c1CNCCN(C)C2=O [Ex. 127, [3a(4)Z]-6,9,16-trimethyl-9,10,11,12,13,14-hexahydro-1,17-(ethanediylidene)pyrazolo[4,3-m]dipyrrolo[3,2-f:3′,4′-i][1,4]diazacyclopentadecine-3,8(2H,5H)-dione] |  |
|  |  |  |  |  |  | Cc1cc2c([nH]1)/C=C1\C(=O)Nc3cnc(cc31)-c1cn[nH]c1CNCCN(C)C2=O [Ex. 55, [3a(4)Z]-6,9-dimethyl-9,10,11,12,13,14-hexahydro-17,1-(azenometheno)pyrazolo[4,3-m]dipyrrolo[3,2-f:3′,4′-i][1,4]diazacyclopentadecine-3,8(2,5H)-dione] | % Ctrl, KIT(L576P) ([1]; target KIT(L576P); 1 μM): 17 % Ctrl; % Ctrl, FLT3(K663Q) ([2]; target FLT3(K663Q); 1 μM): 1.2 % Ctrl; % Ctrl, KIT(V559D, T670I) ([3]; target KIT(V559D, T670I); 1 μM): 50 % Ctrl; % Ctrl, FLT3(R834Q) ([4]; target FLT3(R834Q); 1 μM): 25 % Ctrl; % Ctrl, ABL1(F317L)-nonphosphorylated [5, 8]: 24 % Ctrl; % Ctrl, ABL1(F317L)-phosphorylated [5, 9]: 10 % Ctrl |
|  |  |  |  |  |  | Cc1cc2c([nH]1)/C=C1\C(=O)Nc3cc(Cl)c(cc31)SCCOCCN(C)C2=O [Ex. 169, [16a(17)Z]-19-chloro-5-methyl-6,7,9,10-tetrahydro-1H-12,14-(ethanediylidene)dipyrrolo[3,4-g:2′,3′-j][1,4,13]oxathiazacyclopentadecine-4,16(5H,15H)-dione] | % Ctrl, KIT(L576P) ([1]; 1 μM; target KIT(L576P)): 0 % Ctrl; % Ctrl, FLT3(K663Q) ([2]; 1 μM; target FLT3(K663Q)): 2.7 % Ctrl; % Ctrl, KIT(V559D, T670I) ([3]; 1 μM; target KIT(V559D, T670I)): 1.6 % Ctrl; % Ctrl, FLT3(R834Q) ([4]; 1 μM; target FLT3(R834Q)): 5.9 % Ctrl; % Ctrl, ABL1(F317L)-nonphosphorylated ([5]; 1 μM; target ABL1(F317L)-nonphosphorylated): 0.6 % Ctrl; % Ctrl, ABL1(F317L)-phosphorylated ([5]; 1 μM; target ABL1(F317L)-phosphorylated): 0.1 % Ctrl |
| 98 | 100 | 100 | 84 | 93 | 79 | Cc1cc2c([nH]1)/C=C1\C(=O)Nc3ccc(cc31)OCCOCCNC2=O [Ex. 129, [16a(17)Z]-2-methyl-6,7,9,10-tetrahydro-1H-12,14-(ethanediylidene)dipyrrolo[3,2-i:3′,4′-l][1,4,7]dioxazacyclopentadecine-4,16(5H,15H)-dione] |  |
| 4.8 | 64 | 3.2 | 50 | 59 | 44 | Cc1cc2c([nH]1)/C=C1\C(=O)Nc3cc(Cl)c(cc31)OCCO[C@@H](C(=O)N[C@@H]1CCNC1)CN(C)C2=O [Ex. 136, [7R,16a(17)Z]-19-chloro-2,5-dimethyl-4,16-dioxo-N-[(3R)-pyrrolidin-3-yl]-4,5,6,7,9,10,15,16-octahydro-1H-12,14-(ethanediylidene)dipyrrolo[3,2-i:3′,4′-l][1,4,7]dioxazacyclopentadecine-7-carboxamide] |  |
